Experimental findings from patent publication US7423015B1, “Antihelminthic drugs as a treatment for hyperproliferative diseases” (Board of Regents, The University of Texas System, priority 2001, dated 2008) are described below.

SMILES strings stand for the structures.

The test system of one assay is H460 cells. The experiment in a line: Induction of apoptosis in H460 (Hoechst 33342, TUNEL, TdT FACS). It is filed as cell-based, human. How it is done: Cells were seeded onto chamber slides and treated with various reagents, after which cell monolayers were washed twice with ice-cold PBS (pH 7.4). Thereafter, cells were fixed for 5 min at 20° C. in 10% formalin. The washing step with PBS was then repeated once. To stain the nuclei, the cells were incubated for 10 min with 10 μg/ml of Hoechst 33342 and then washed with PBS. The coverslips with the stained cells were mounted in 80% glycerol in PBS containing 1 mg/ml P-phenylenediamine and examined with a Nikon epifluorescence microscope.
Apoptotic assay was done using M30 CytoDEATH apoptotic cell death assay kit (Boehringer Mannnheim). Cells were grown on chamber slides, control and benzimidazole treated cells were stained with Mouse monoclonal antibody (clone M30) as per manufacturer's instructions. […] Flow cytometry was carried out in a fluorescence-activated cell sorter (Epics Elite; Coulter, Inc., Hialeah, Fla.).
The inventors tested the effect of BZ treatment on the human NSCLC cell line H460. […] Chromatin condensation was noted under a fluorescence microscope at 24 h after treatment, by staining the nuclei with Hoechst 33342 fluorescent dye. […] Gross morphological changes associated with a loss of viability were observed by 24 hr post-treatment, whereas signs of apoptosis, detected by DNA staining and TUNEL assays, became apparent by 24 hr after drug treatment.

Assay [1] relates to p53, p21, MDM2, Bcl-2, Cyclin A, Cyclin D, Cdc 2, Bcl-XL, Bax, Rb and Cdk-2. The experiment in a line: Western blot of proteins of apoptotic pathways in H460 whole-cell extracts. The note with it: 0.05 μg/ml for 24 hr. It is filed as cell-based, human. How it is done: (§1) Cells were grown in 6-cm dishes, cultured, and treated as described above. To prepare the whole-cell lysates, the medium was removed and cells were washed twice with ice-cold Tris-buffered saline (TBS) (150 mM NaCl, 10 mM Tris; pH 7.6) and lysed with 0.5 ml of lysis buffer (10 mM Tris, 150 mM NaCl, 1% Triton X-100, 5 mM EDTA, 25 mM glycerphosphate, 1 mM phenylmethylsulphonyl fluoride (PMSF), 2 mM benzamidine, […], and 1 mM sodium orthovanadate) for 15 min. The lysed cells were then transferred to 1.5 ml microtubes, centrifuged at 15,000×g for 10 min at 4° C., and the supernatants collected mixed with Laemmli's sample buffer and subjected to western blot analysis as described elsewhere (Nare et al., 1994). Blots were probed with anti-p53 monoclonal antibody Bp53-12 (Santa Cruz Biotechnology, Inc.) and the immunocomplex was detected by the Enhanced Chemiluminescence kit according to the manufacturer's directions (Amersham).
To rule out the possibility that FZ and MZ have an effect on other proteins known to have a role in various apoptotic pathways, the inventors evaluated the effect of these drugs on a panel of such proteins. […] Specifically, the levels of these proteins were evaluated by Western blot analyses before and after exposure to 0.05 μg/ml FZ or MZ for 24 hr using whole-cell extracts. […] The protein level of the phosphorylated form of Rb also remained unchanged after treatment.
(Immunoblotting shows a protein as a band on a membrane.)

In another assay the test system is p21/WAF1 transcript. The experiment in a line: Northern blot analysis in H460 cells. The class given is cell-based, human. As to conditions: at the time the p53 level peaked. The procedure: (§2) Total RNA was isolated from the subconfluent cultures using the guanidinium thisocyanate method (Lacey, 1988). After this 20 μg of the RNA was electrophoresed in a denaturing 1.2% agarose/morpholinepropanesulfonic acid (MOPS)-formaldehyde gel, transferred onto a nitrocellulose membrane, and hybridized to a ^32P-radiolabeled p53 cDNA probe, as described elsewhere (Lubiga and Prichard, 1990). The ^32P-labeled probes were generated using random primers (>8×10^8 cpm/μg). Blots were washed at 65° C. in 2× standard saline citrate (SSC) for 30 min and then washed twice at 60° C. in 0.1% sodium dodecyl sulfate (SDS) and 0.1×SSC. The cDNA probes used were 1.2-kb human p53 cDNA and an 800-bp fragment of human p21 cDNA.
(§3) Cell extracts were prepared from H460 cells exposed to 0.05 μg/ml FZ or MZ for various durations (1 to 24 hr). The effect of FZ and MZ on the nuclear accumulation of p53 appeared to be gradual and was not significant within the first hour of exposure. […] The appearance of p53 in response to drug treatment also coincided with the initiation of apoptosis, which was detectable by 24 hr, as well as shown earlier by TdT FACS analysis. […] Total RNA was extracted and […] was used for the analysis. p53 protein was detected by immunoblot analysis.

The subject of another assay is p53 mRNA. In words: Northern blot analysis in H460 cells. The class given is cell-based, human. As to conditions: 0.05 μg/ml, 24 hr. How it is done: as §2, §3
The subject of the next assay is Saos-2. In words: Cell viability, trypan blue cell count assay. As to conditions: Homo sapiens, Saos-2 (osteosarcoma, p53 deleted), 100% = untreated cells. It is filed as cell-based.
In assay [2] the test system is p53 protein. The experiment in a line: p53 protein stability, pulse-chase with cycloheximide in H460. It is filed as cell-based, human.
Method: Cells were treated with 0.05 μg/ml fenbendazole or mebendazole for 24 h. After this, control (mock-treated) and drug-treated H460 cells were incubated with 10 μg/ml cycloheximide in drug-free medium for different times and then processed to obtain total cell extracts. Finally, samples were denatured by boiling them in SDS-loading buffer (100 mM Tris, pH 6.8; 2% SDS; 0.1% bromphenol blue; 10% glycerol; 25 μM β-mercaptoethanol) and loaded onto a 10% SDS-polyacrylamide gel. Blots were probed with anti-p53 monoclonal antibody B p53-12 (Santa Cruz Biotechnology, Inc.) and anti-actin monoclonal antibody (Amersham). The immunocomplexes were detected using the Enhanced Chemiluminescence kit according to the manufacturer's directions as described above. The intensities of the bands were quantitated with a PhosphoImager using ImageQuant™ Software (Molecular Dynamics, Sunnyvale, Calif.).
H460 cells were treated with 0.05 μg/ml FZ for 24 hr, and then both untreated control and treated cells were washed with PBS and treated with 24 μg/ml cyclohexamide. After that, cells were harvested at different times. The total cell protein was extracted and analyzed on a 10% polyacrylamide-gel, followed by Western blot analysis using p53 and actin monoclonal antibodies. […]
Data from the pulse-chase experiments were quantitated with a PhosphoImager using ImageQuant™ software. […]
Assay [3] has as its system p53 protein. In words: p53 induction, immunoblot analysis of nuclear extracts. It is filed as cell-based, human. As to conditions: H460; 0.05 μg/ml, exposure 1 to 24 hr. How it is done:
as §1, §3

By viability is commonly meant the share of living cells, or the viability signal relative to a control. A low value points to a greater loss of cells.

In the case of `COC(=O)Nc1nc2ccc(Sc3ccccc3)cc2[nH]1` [Fenbendazole, methy 5-(phenylthio)-2-benzimidazole-2-carbamate], in the assay with H460 cells, the “apoptotic effect on H460 cells” value is “apoptotic effect”. Further, in assay [1], the “levels of Bcl-2, Cyclin A, Cyclin D, Cdc 2, Bcl-XL, Bax, Rb and Cdk-2” value is “no changes”; the “levels of nuclear p53, p21 and MDM2” value is “enhanced”. Moreover, the “level of the p21/WAF1 transcript” value in the assay with p21/WAF1 transcript is listed as “significantly increased”. Besides, in the assay with p53 mRNA, the “p53 mRNA levels” value was “no significant changes”. Further, the viability at 0.05 µg/mL in the assay with Saos-2 came out at 76.5 ± 5.9%. Further, the “effect on half-life of the p53 protein” value in the assay on p53 protein [2] is given as “prolong the half-life”. Further, in the assay on p53 protein [3], the “time at which nuclear accumulation of p53 became significantly detectable” value is on record as “about 16 hr” and the “time at which nuclear accumulation of p53 peaked” value was determined as 24 h.

As for `COC(=O)Nc1nc2ccc(C(=O)c3ccccc3)cc2[nH]1` [Mebendazole, Methyl 5-benzoylbenzimidazole-2-carbamate], the “apoptotic effect on H460 cells” value with H460 cells was “apoptotic effect”. In assay [1], the “levels of Bcl-2, Cyclin A, Cyclin D, Cdc 2, Bcl-XL, Bax, Rb and Cdk-2” value is given as “no changes”; the “levels of nuclear p53, p21 and MDM2” value is listed as “enhanced”. Moreover, in the assay on p21/WAF1 transcript, the “level of the p21/WAF1 transcript” value is given as “significantly increased”. Besides, the “p53 mRNA levels” value with p53 mRNA is “no significant changes”. In the assay with Saos-2, this compound yielded a viability at 0.05 µg/mL of 65.4 ± 10.1%. The “effect on half-life of the p53 protein” value with p53 protein [2] is “prolong the half-life”. Further, in the assay with p53 protein [3], the “time at which nuclear accumulation of p53 became significantly detectable” value is “about 16 hr” and the “time at which nuclear accumulation of p53 peaked” value was determined as 24 h.
